Test results taken from article PMC9078972 (RSC Advances, 2018).
Values after ≈ are worked out from the molar mass of the structure shown.

Key:
[1] = Cytotoxicity against VERO cells; type: cell-based; conditions: African green monkey, VERO cells (kidney epithelial cells)
[2] = system: Mycobacterium tuberculosis H37Ra; experiment: microbe, parasite or virus in culture; type: cell-based

Which CC50 [1] does the source give for `CCCCN1CCN(c2nc(=O)c3cc(C(F)(F)F)cc([N+](=O)[O-])c3s2)CC1=O` [Compound 1d, 2-(4-Butyl-3-oxopiperazin-1-yl)-8-nitro-6-(trifluoromethyl)-4H-benzo[e][1,3]-thiazin-4-one] here?
Its CC50 is over 10 µM.

With `CCOC(=O)C1CCN(c2nc(=O)c3cc(C(F)(F)F)cc([N+](=O)[O-])c3s2)CC1` [Compound 2a, Ethyl 1-(8-nitro-4-oxo-6-(trifluoromethyl)-4H-benzo[e][1,3]thiazin-2-yl)piperidine-4-carboxylate] as the compound, how does the MIC [2] read?
The MIC was 8 nM (≈ 3.45 ng/mL).

What about the CC50 [1] of the same compound?
Its CC50 is over 10 µM.

Which MIC [2] does the source give for `CCOC(=O)CN1CCN(c2nc(=O)c3cc(C(F)(F)F)cc([N+](=O)[O-])c3s2)CC1` [Compound 2b, Ethyl 2-(4-(8-nitro-4-oxo-6-(trifluoromethyl)-4H-benzo[e][1,3]thiazin-2-yl)-piperazin-1-yl)acetate] here?
The MIC was 20 nM (≈ 8.93 ng/mL).

And the CC50 [1]?
Its CC50 is over 10 µM.

For `CCOC(=O)CC1CCN(c2nc(=O)c3cc(C(F)(F)F)cc([N+](=O)[O-])c3s2)CC1` [Compound 2c, Ethyl 2-(1-(8-nitro-4-oxo-6-(trifluoromethyl)-4H-benzo[e][1,3]thiazin-2-yl)-piperidin-4-yl)acetate], which MIC [2] is on record?
The MIC was 16 nM (≈ 7.13 ng/mL).

What about the CC50 [1] of the same compound?
Its CC50 is over 10 µM.

Which MIC [2] does the source give for `CCOC(=O)C(C)N1CCN(c2nc(=O)c3cc(C(F)(F)F)cc([N+](=O)[O-])c3s2)CC1` (stereo not drawn) [Compound 2d, Ethyl 2-(4-(8-nitro-4-oxo-6-(trifluoromethyl)-4H-benzo[e][1,3]thiazin-2-yl)-piperazin-1-yl)propanoate] here?
The MIC was 8 nM (≈ 3.68 ng/mL).

Which MIC [2] does the source give for `O=C1OCCC1N1CCN(c2nc(=O)c3cc(C(F)(F)F)cc([N+](=O)[O-])c3s2)CC1` (stereo not drawn) [Compound 2f, 8-Nitro-2-(4-(2-oxotetrahydrofuran-3-yl)piperazin-1-yl)-6-(tri-fluoromethyl)-4H-benzo[e][1,3]thiazin-4-one] here?
The MIC was 64 nM (≈ 28.4 ng/mL).

And the CC50 [1]?
The CC50 was over 10 µM.

Which results are given for `CCCC1CC(N2CCN(c3nc(=O)c4cc(C(F)(F)F)cc([N+](=O)[O-])c4s3)CC2)C(=O)O1` (stereo not drawn) [Compound 2g, 8-Nitro-2-(4-(2-oxo-5-propyltetrahydrofuran-3-yl)piperazin-1-yl)-6-(trifluoromethyl)-4H-benzo[e][1,3]thiazin-4-one]?
MIC [2]: 16 nM (≈ 7.78 ng/mL); CC50 [1]: > 10 µM

Which MIC [2] does the source give for `O=C(OC1CCN(c2nc(=O)c3cc(C(F)(F)F)cc([N+](=O)[O-])c3s2)CC1)c1ccc(F)cc1` [Compound 2h, 1-(8-Nitro-4-oxo-6-(trifluoromethyl)-4H-benzo[e][1,3]thiazin-2-yl)piperidin-4-yl 4-fluorobenzoate] here?
The MIC was at most 2 nM.

Which MIC [2] does the source give for `O=C(OC1CCN(c2nc(=O)c3cc(C(F)(F)F)cc([N+](=O)[O-])c3s2)CC1)c1ccccc1F` [Compound 2i, 1-(8-Nitro-4-oxo-6-(trifluoromethyl)-4H-benzo[e][1,3]thiazin-2-yl)piperidin-4-yl 2-fluorobenzoate] here?
The MIC was at most 2 nM.

And the CC50 [1]?
The CC50 was over 10 µM.

With `O=C(OC1CCN(c2nc(=O)c3cc(C(F)(F)F)cc([N+](=O)[O-])c3s2)CC1)c1ccccc1Cl` [Compound 2j, 1-(8-Nitro-4-oxo-6-(trifluoromethyl)-4H-benzo[e][1,3]thiazin-2-yl)piperidin-4-yl 2-chlorobenzoate] as the compound, how does the MIC [2] read?
The MIC was 8 nM (≈ 4.11 ng/mL).

What about the CC50 [1] of the same compound?
Its CC50 is over 10 µM.

For `O=C(OC1CCN(c2nc(=O)c3cc(C(F)(F)F)cc([N+](=O)[O-])c3s2)CC1)c1ccc(C(F)(F)F)cc1` [Compound 2k, 1-(8-Nitro-4-oxo-6-(trifluoromethyl)-4H-benzo[e][1,3]thiazin-2-yl)piperidin-4-yl 4-(trifluoromethyl)benzoate], which MIC [2] is on record?
The MIC was 8 nM (≈ 4.38 ng/mL).

What about the CC50 [1] of the same compound?
Its CC50 is over 10 µM.

For `O=c1nc(N2CCC(Oc3ccc(F)cc3)CC2)sc2c([N+](=O)[O-])cc(C(F)(F)F)cc12` [Compound 3b, 2-(4-(4-Fluorophenoxy)piperidin-1-yl)-8-nitro-6-(trifluoro-methyl)-4H-benzo[e][1,3]-thiazin-4-one], which MIC [2] is on record?
The MIC was 4 nM (≈ 1.88 ng/mL).

With `O=c1nc(N2CCC(Oc3nccc(C(F)(F)F)n3)CC2)sc2c([N+](=O)[O-])cc(C(F)(F)F)cc12` [Compound 3n, 8-Nitro-6-(trifluoromethyl)-2-(4-((4-(trifluoromethyl)pyrimidin-2-yl)oxy)piperidin-1-yl)-4H-benzo[e][1,3]thiazin-4-one] as the compound, how does the MIC [2] read?
The MIC was 4 nM (≈ 2.09 ng/mL).
